{"source": "patent US20160220542A1", "about": "“SYNERGISTIC ACTIVITY OF MODULATORS OF THE NO METABOLISM AND OF NADPH OXIDASE IN THE SENSITISATION OF TUMOR CELLS” (Universitaetsklinikum Freiburg, priority 2010, published 2016)", "key": {"[1]": {"tested_on": "transformed 208Fsrc3 cells", "assay": "apoptosis induction mediated by added myeloperoxidase (MPO)", "assay_type": "cell-based, rat", "settings": "200 mU/ml MPO; 100 U/ml catalase, 50 mM taurine, 10 mM mannitol; 5 hours", "method": "Instead of the autocrine apoptosis induction illustrated in Example 1, in the experiment illustrated in Example 2 the HOCl signalling pathway is accelerated by addition of exogenous MPO (FIG. 2A) or the NO/peroxynitrite pathway is induced by addition of the rapidly decomposing NO donor DEA NONOate.\n12 500 transformed 208Fsrc3 cells per preparation (96 hole plate, 100 μl medium) were sown. Under A these also received 200 mU/ml MPO, and under B additionally 1.5 mM DEA NONOate. Control preparations remained free of MPO or DEA NONOate. In Part A additionally 100 U/ml catalase (KAT), 50 mM taurine (TAU), and 10 mM mannitol (MANN) were used.\nIn FIG. 2B the addition took place of 25 μM of the catalytically effective peroxynitrite destroyer FeTPPS. The duplicate preparations under A were assessed after 5 hours, and those under B after just 3 hours. […] The inhibitors confirm the involvement of hydrogen peroxide (inhibition by catalase), HOCl (inhibition by taurine), and hydroxyl radicals (inhibition by mannitol). Again a bell curve was obtained, the right part of which is dependent upon the availability of HOCl and the effect of hydroxyl radicals."}, "[2]": {"tested_on": "transformed rat fibroblast line 208Fsrc3", "assay": "autocrine, ROS mediated apoptosis induction in transformed cells", "assay_type": "cell-based", "settings": "22 hours; for effect on autocrine apoptosis: 50 mM taurine, 150 μM ABH or 10 mM mannitol", "method": "12 500 cells of the transformed rat fibroblast line 208Fsrc3 per 100 μl complete medium were sown in 96 hole plates. Following growth 20 ng/ml TGF-beta-1 were added to all preparations. To the preparations the stated concentrations of Cu SOD (from bovine erythroctes) or Mn SOD (from E. coli) were added. Some of the preparations received 50 mM of the HOCl receptor taurine (TAU), 150 μM of the peroxidase inhibitor 4-aminobenzoylhydrazide (ABH) or 10 mM of the hydroxyl radical scavenger mannitol. After 22 hours the percentages of apoptotic cells were determined on the basis of the conventional apoptosis characteristics of nuclear condensation, nuclear fragmentation or membrane blebbing in each case in duplicate preparations."}, "208Fsrc3 cells": {"tested_on": "208Fsrc3 cells", "assay": "EUK-8-mediated apoptosis induction, Cu SOD bell curve", "assay_type": "cell-based, rat", "method": "12 500 208Fsrc3 cells in 100 μl (96 hole plate) had increasing concentrations of Cu SOD added in the presence of 120 μM EUK-8. After 5 hours the percentage of apoptotic cells was determined in duplicate preparations.\nThe indicated cell counts (208Fsrc3) in 100 μl medium had increasing concentrations of Cu SOD added in the presence of 120 μM EUK-8. After 1.5 hours in duplicate preparations the percentages of apoptotic cells were determined. There is a direct dependency between the SOD concentration at the vertex and the number of cells per preparation. Since this in turn determines the total concentration of available superoxide anions, there is a correlation between SOD concentration at the vertex and the superoxide anions concentration achieved."}, "MKN-45 cells": {"tested_on": "MKN-45 cells", "assay": "apoptosis induction in MKN-45 tumour cells, single substances and combinations", "assay_type": "cell-based", "settings": "4.5 hours", "description": "12 500 MKN-45 cells in 100 μl medium were prepared with the stated concentrations of arginine in combination with 0.2 or 20 μM resveratrol. Control preparations received arginine at between 0 and 5 mM, but remained free of resveratrol. After 4.5 hours the percentages of apoptotic cells were determined (duplicate preparations).\nIn addition, 25 μM caspase-8 inhibitor were added or not added to the stated combinations of arginine and resveratrol. Assessment after 4.5 hours.\n12 500 MKN-45 cells in 100 μl had 10 μg/ml Taxol or 0.013 μg/ml Taxol in combination or not with the stated concentrations of resveratrol added. […] After 4.5 hours in duplicate preparations the percentages of apoptotic cells were determined.\n12 500 MKN-45 cells in 100 μl medium received either no addition of substances, 25 ng/ml epothilone B, 0.75 ng/ml epothilone B, 25 μg/ml resveratrol or the combination of 0.75 ng/ml epothilone B with 25 μg/ml resveratrol. After 3 hours the percentages of apoptotic cells were determined in duplicate preparations.\n12 500 MKN 45 cells in 100 μl medium received none of the stated additives. After 3 hours an assessment was made of the duplicate preparations."}, "[3]": {"tested_on": "extracellular superoxide anion production of MKN-45 cells", "assay": "extracellular superoxide anion production of MKN-45 cells (Cu SOD bell curve shift)", "assay_type": "cell-based"}, "NO dioxygenase (NOD)": {"tested_on": "NO dioxygenase (NOD)", "assay": "inhibition of NO dioxygenase (DEA NONOate-dependent apoptosis in MKN-45 cells)", "assay_type": "cell-based", "method": "This test is based on the fact that NOD also effectively converts exogenously added NO into nitrate and thus in suitable cell systems (such as for example the tumour cell line MKN-45) can prevent apoptosis induction by NO/peroxynitrite.\nThis rules out a test substance having an influence over the reaction as a whole, through modulation of the catalase activity. The hydrogen peroxide released following the catalase inhibition is fully decomposed by 20-25 μM of the catalase mimetic EUK-134 (similar to the abovementioned EUK-8, but with a lower peroxidise activity). In this way both the HOCl pathway and the consumption of NO by hydrogen peroxide are prevented. For the modulation of the available NO concentration with the known mechanisms now only the NOD remains. If this is inhibited then the addition of exogenous NO leads to an increased apoptosis induction.\n12 500 MKN-45 cells in 100 μl Medium had 200 mM 3-AT, 2.4 mM NAME, 25 μM EUK-134 and the stated concentrations of epothilone B (“EPO”) added. […] Then the stated concentrations of the NO donor DEANONOate were added and the preparations were incubated for a further 2 hours at 37° C. before the percentages of apoptotic cells were determined.\nThe experiment was carried out in the same way as described in FIG. 10, but with the difference that the stated concentrations of DADS (FIG. 11A) or Taxol (FIG. 11B) were used and the determination of the apoptotic cells took place after 3 hours."}, "[4]": {"tested_on": "human lymphoma line Gumbus", "assay": "catalase deactivation of tumour cells (hydrogen peroxide induced apoptosis)", "assay_type": "cell-based", "settings": "1.5 hours", "method": "25 000 cells of the human lymphoma line Gumbus/100 μl medium had the stated concentrations of hydrogen peroxide added without 3-AT or in the presence of 50 mM or 100 mM of the catalase inhibitor 3-AT. After 1.5 hours in duplicate preparations the apoptosis induction was determined.\nFIG. 14B: Gumbus cells were pre-incubated without Taxol (control) or with 10 μg/ml Taxol for 30 minutes at 37° C. Parallel preparations were either free of further substances or contained 2 mM histidine (singlet oxygen-receptor), 25 μM FeTPPS (catalytically-acting peroxynitrite destroyer) or 25 U/ml catalase (CAT). Following pre-incubation the cells were separated by centrifugation, absorbed in fresh medium and the stated concentrations of hydrogen peroxide added. After 1.5 hours the assessment was performed in the duplicate preparations."}, "NADPH oxidase": {"molecular_target": "T1, NADPH oxidase (Rattus norvegicus, UniProt Q9WV87)", "T1 construct": "12 500 208Fsrc3 cells (100 μl) received the stated concentrations of Cu SOD and 120 μM EUK-8; endogenous in cells; host or cells: 208Fsrc3 transformed rat fibroblasts", "T1 sequence (Q9WV87 1-563)": "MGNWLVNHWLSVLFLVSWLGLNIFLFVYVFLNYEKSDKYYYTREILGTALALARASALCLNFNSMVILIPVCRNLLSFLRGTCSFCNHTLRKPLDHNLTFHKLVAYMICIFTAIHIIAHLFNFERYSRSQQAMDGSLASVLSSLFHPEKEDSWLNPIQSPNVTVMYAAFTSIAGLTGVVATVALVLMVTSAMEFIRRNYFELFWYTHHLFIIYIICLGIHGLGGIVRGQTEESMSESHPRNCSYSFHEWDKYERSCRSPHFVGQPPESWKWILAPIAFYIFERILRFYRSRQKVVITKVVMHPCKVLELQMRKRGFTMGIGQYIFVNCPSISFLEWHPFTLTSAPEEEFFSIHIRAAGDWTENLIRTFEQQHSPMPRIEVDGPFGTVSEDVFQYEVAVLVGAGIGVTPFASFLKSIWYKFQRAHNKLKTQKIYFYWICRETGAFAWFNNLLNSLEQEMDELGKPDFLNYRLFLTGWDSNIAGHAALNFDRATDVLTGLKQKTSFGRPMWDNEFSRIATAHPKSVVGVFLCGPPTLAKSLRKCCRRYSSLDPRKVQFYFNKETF", "T1 sequence (Q62737 1-192 partner)": "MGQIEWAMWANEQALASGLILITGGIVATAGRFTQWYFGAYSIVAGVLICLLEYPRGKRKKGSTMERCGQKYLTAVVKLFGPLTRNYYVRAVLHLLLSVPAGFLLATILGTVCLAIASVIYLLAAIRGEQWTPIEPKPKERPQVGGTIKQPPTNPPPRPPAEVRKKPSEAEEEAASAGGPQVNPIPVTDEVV", "assay": "superoxide anion concentration after inhibition of NADPH oxidase (Cu SOD bell curve shift)", "assay_type": "cell-based", "settings": "208Fsrc3, 120 μM EUK-8, 5 hours", "method": "12 500 208Fsrc3 cells (100 μl) received the stated concentrations of Cu SOD and 120 μM EUK-8. In addition the stated concentrations of the NADPH oxidase inhibitor AEBSF (4-(2-Aminoethyl)-benzenesulfonyl fluoride) were added. Control preparations remained free of AEBSF. After 5 hours the percentages of apoptotic cells were determined in duplicate preparations."}}}
{"compound": "NCCS(=O)(=O)O", "note": "[taurine]", "values": [{"measurement": "effect on MPO-mediated apoptosis (HOCl pathway)", "setting": "[1]", "value": "inhibition"}, {"measurement": "effect on autocrine apoptosis", "setting": "[2]", "value": "completely inhibited"}]}
{"compound": "Cu SOD: Cu-containing superoxide dismutase from bovine erythroctes", "values": [{"measurement": "effect of higher SOD concentrations on apoptosis", "setting": "[2]; concentrations above maximum inhibition", "value": "renewed increase in the apoptosis"}, {"measurement": "effect of Cu SOD on EUK-8-mediated apoptosis", "setting": "208Fsrc3 cells; 120 μM EUK-8, 12 500 cells, 5 hours", "value": "leads to a bell curve"}, {"measurement": "SOD concentration at the vertex (maximum inhibition)", "setting": "208Fsrc3 cells; 6 250 cells, 120 μM EUK-8, 1.5 hours", "value": 0.57, "unit": "U/ml"}]}
{"compound": "CC(=O)O[C@H]1C(=O)[C@@]2(C)[C@H]([C@H](OC(=O)c3ccccc3)[C@]3(O)C[C@H](OC(=O)[C@H](O)[C@@H](NC(=O)c4ccccc4)c4ccccc4)C(C)=C1C3(C)C)[C@]1(OC(C)=O)CO[C@@H]1C[C@@H]2O", "note": "[Taxol]", "values": [{"measurement": "apoptosis induction", "setting": "MKN-45 cells; 0.013 μg/ml Taxol alone", "value": "induced no apoptosis"}, {"measurement": "apoptosis induction", "setting": "MKN-45 cells; 10 μg/ml Taxol alone", "value": "clear apoptosis induction"}, {"measurement": "stimulation of the NADPH oxidase compared with epothilone B", "setting": "[3]; data not shown", "value": "behaves in the same way"}, {"measurement": "stimulation of the NADPH oxidase", "setting": "[3]; higher concentration range of the substances", "value": "simultaneous stimulation of the NADPH oxidase"}, {"measurement": "effect on available NO concentration (NOD inhibition)", "setting": "NO dioxygenase (NOD); as Example 10, 3 hours", "value": "led to an increase in the available NO concentration"}, {"measurement": "available NO concentration through inhibition of the NOD", "setting": "NO dioxygenase (NOD); broad concentration range", "value": "increase in the available NO concentration"}, {"measurement": "effect on catalase protection against exogenous hydrogen peroxide", "setting": "[4]; pre-incubation with 10 μg/ml Taxol for 30 minutes, washed", "value": "has the same effect as 3-AT"}]}
{"compound": "OC[C@@H](O)[C@@H](O)[C@H](O)[C@H](O)CO", "note": "[mannitol]", "values": [{"measurement": "effect on MPO-mediated apoptosis (HOCl pathway)", "setting": "[1]", "value": "inhibition"}, {"measurement": "effect on autocrine apoptosis", "setting": "[2]", "value": "completely inhibited"}]}
{"compound": "NCCc1ccc(S(=O)(=O)F)cc1", "note": "[AEBSF, 4-(2-Aminoethyl)-benzenesulfonyl fluoride]", "values": [{"measurement": "reduction in superoxide anion concentration on doubling of the inhibitor concentration", "setting": "NADPH oxidase", "value": "fourfold"}]}
{"compound": "Nc1nc[nH]n1", "note": "[3-AT, 3-aminotriazole]", "values": [{"measurement": "effect on catalase protection against exogenous hydrogen peroxide", "setting": "[4]; 50 mM or 100 mM 3-AT", "value": "can be reversed"}]}
